Results as given in US11279683B2, “Thiophene derivatives as antiviral agents” (ENYO PHARMA, priority 2016, dated 2022).
pIC50: −log10 of the molar value.

tested on: H1N1 (influenza A/New Caledonia/20/99); test: microbe, parasite or virus in culture; assay type: cell-based; conditions: Influenza A virus, H1N1, A549, 48 h

Compared with `NC(=O)N1CCCC(C(=O)Nc2sc3c(c2C(=O)Nc2ccc(Cl)cc2)CCC3)C1` (stereo not shown) [Compound 92, N3-[3-[(4-chlorophenyl)carbamoyl]-5,6-dihydro-4H-cyclopenta[b]thiophen-2-yl]piperidine-1,3-dicarboxamide], `NC(=O)C1CCCCC1C(=O)Nc1sc2c(c1C(=O)Nc1ccc(Cl)cc1)CCC2` (stereo not shown) [Compound 55, N2-[3-[(4-Chlorophenyl)carbamoyl]-5,6-dihydro-4H-cyclopenta[b]thiophen-2-yl]cyclohexane-1,2-dicarboxamide] is 0.37 log units lower in pIC50: 4.94 for the first, 4.57 for the second. The first is the more potent here.

`O=C(Nc1ccc(Cl)cc1)c1c(NC(=O)N2CCCCC2C(=O)O)sc2c1CCC2` (stereo not shown) [Compound 89, 1-[[3-[(4-chlorophenyl)carbamoyl]-5,6-dihydro-4H-cyclopenta[b]thiophen-2-yl]carbamoyl]piperidine-2-carboxylic acid] and `O=C(Nc1ccc(Cl)cc1)c1c(NC(=O)C2CCCCC2C(=O)O)sc2c1CCC2` (stereo not drawn) [Compound 49, 2-[[3-[(4-Chlorophenyl)carbamoyl]-5,6-dihydro-4H-cyclopenta[b]thiophen-2-yl]carbamoyl]cyclohexane-trans-carboxylic acid] are within 0.2 log units of each other in pIC50: 5.06 for the first, 4.91 for the second.

`O=C(Nc1cnc(Cl)cn1)c1c(NC(=O)C2CCCCC2C(=O)O)sc2c1CCC2` (stereo not shown) [Compound 26, 2-[[3-[(5-Chloropyrazin-2-yl)carbamoyl]-5,6-dihydro-4H-cyclopenta[b]thiophen-2-yl]carbamoyl]cyclohexanecarboxylic acid] and `Cc1cncc(NC(=O)c2c(NC(=O)C3CCCCC3C(=O)O)sc3c2CCC3)c1` (stereo not shown) [Compound 33, 2-[[3-[(5-Methyl-3-pyridyl)carbamoyl]-5,6-dihydro-4H-cyclopenta[b]thiophen-2-yl]carbamoyl]cyclohexanecarboxylic acid] are within 0.2 log units of each other in pIC50: 4.71 for the first, 4.56 for the second.

`CC1OCc2sc(NC(=O)C3CCCCC3C(=O)O)c(C(=O)Nc3ccc(Cl)cc3)c21` (stereo not shown) [Compound 39, 2-[[3-[(4-Chlorophenyl)carbamoyl]-4-methyl-4,6-dihydrothieno[2,3-c]furan-2-yl]carbamoyl]cyclohexanecarboxylic acid] and `CCc1c(C)sc(NC(=O)C2CCCCC2C(=O)O)c1C(=O)Nc1ccc(Cl)cc1` (stereo not shown) [Compound 59, 2-[[3-[(4-Chlorophenyl)carbamoyl]-4-ethyl-5-methyl-2-thienyl]carbamoyl]cyclohexanecarboxylic acid] are the same in pIC50: 4.27 for the first, 4.27 for the second.

First: O=C(NCc1ccc(Cl)cc1)c1c(NC(=O)C2CCCCC2C(=O)O)sc2c1CCC2 (stereo not shown) [Compound 5, 2-[[3-[(4-Chlorophenyl)methylcarbamoyl]-5,6-dihydro-4H-cyclopenta[b]thiophen-2-yl]carbamoyl]cyclohexanecarboxylic acid]
Second: O=C(Nc1ccc(CO)cc1)c1c(NC(=O)C2CCCCC2C(=O)O)sc2c1CCC2 (stereo not shown) [Compound 19, 2-[[3-[[4-(Hydroxymethyl)phenyl]carbamoyl]-5,6-dihydro-4H-cyclopenta[b]thiophen-2-yl]carbamoyl]cyclohexanecarboxylic acid]
The pIC50 of the first is 0.46 log units higher: 4.97 for the first, 4.51 for the second.

Compared with `Cc1nccn1CC(=O)Nc1sc2c(c1C(=O)Nc1ccc(Cl)cc1)CCCC2` [Compound 75, N-(4-Chlorophenyl)-2-[[2-(2-methylimidazol-1-yl)acetyl]amino]-4,5,6,7-tetrahydrobenzothiophene-3-carboxamide], `O=C(O)CCC(=O)Nc1sc2c(c1C(=O)Nc1ccc(Cl)cc1)CCC2` [Compound 50, 4-[[3-[(4-Chlorophenyl)carbamoyl]-5,6-dihydro-4H-cyclopenta[b]thiophen-2-yl]amino]-4-oxo-butanoic acid] is 0.29 log units lower in pIC50: 4.77 for the first, 4.48 for the second. The first is the more potent here.

`CO[C@H]1CC[C@H](NC(=O)c2c(NC(=O)C3CCCCC3C(=O)O)sc3c2CCC3)CC1` (stereo partly drawn) [Compound 8, 2-[[3-[(Trans-4-methoxycyclohexyl)carbamoyl]-5,6-dihydro-4H-cyclopenta[b]thiophen-2-yl]carbamoyl]cyclohexanecarboxylic acid] and `CCCCCNC(=O)c1c(NC(=O)C2CCCCC2C(=O)O)sc2c1CCC2` (stereo not shown) [Compound 22, 2-[[3-(pentylcarbamoyl)-5,6-dihydro-4H-cyclopenta[b]thiophen-2-yl]carbamoyl]cyclohexanecarboxylic acid] are within 0.2 log units of each other in pIC50: 4.56 for the first, 4.69 for the second.

`CCc1c(C)sc(NC(=O)C2CCCCC2C(=O)O)c1C(=O)Nc1ccccc1` (stereo not shown) [Compound 73, 2-[[4-Ethyl-5-methyl-3-(phenylcarbamoyl)-2-thienyl]carbamoyl]cyclohexanecarboxylic acid] and `Cc1cccc(NC(=O)c2c(NC(=O)C3CCCCC3C(=O)O)sc3c2CCC3)c1` (stereo not shown) [Compound 58, 2-[[3-(m-Tolylcarbamoyl)-5,6-dihydro-4H-cyclopenta[b]thiophen-2-yl]carbamoyl]cyclohexanecarboxylic acid] are within 0.2 log units of each other in pIC50: 4.61 for the first, 4.56 for the second.

`COc1cccc(NC(=O)c2c(NC(=O)C3CCCCC3C(=O)O)sc3c2CCC3)c1` (stereo not shown) [Compound 64, 2-[[3-[(3-Methoxyphenyl)carbamoyl]-5,6-dihydro-4H-cyclopenta[b]thiophen-2-yl]carbamoyl]cyclohexanecarboxylic acid] and `COc1ccc(NC(=O)c2c(NC(=O)C3CCCCC3C(=O)O)sc3c2CCC3)cc1` (stereo not shown) [Compound 76, 2-[[3-[(4-Methoxyphenyl)carbamoyl]-5,6-dihydro-4H-cyclopenta[b]thiophen-2-yl]carbamoyl]cyclohexanecarboxylic acid] are the same in pIC50: 4.85 for the first, 4.85 for the second.

`CS(=O)(=O)N1CCOC(C(=O)Nc2sc3c(c2C(=O)Nc2ccc(Cl)cc2)CCC3)C1` (stereo not shown) [Compound 86, N-[3-[(4-chlorophenyl)carbamoyl]-5,6-dihydro-4H-cyclopenta[b]thiophen-2-yl]-4-methylsulfonyl-morpholine-2-carboxamide] and `NC(=O)N1CCOCC1C(=O)Nc1sc2c(c1C(=O)Nc1ccc(Cl)cc1)CCC2` (stereo not shown) [Compound 82, N3-[3-[(4-chlorophenyl)carbamoyl]-5,6-dihydro-4H-cyclopenta[b]thiophen-2-yl]morpholine-3,4-dicarboxamide] are within 0.2 log units of each other in pIC50: 5.20 for the first, 5.36 for the second.

First: CC(C)(C)C1CCc2c(sc(NC(=O)[C@H]3CCCC[C@H]3C(=O)O)c2C(=O)Nc2ccc(Cl)cc2)C1 (stereo in doubt) [Compound 79, 2-[[6-tert-butyl-3-[(4-chlorophenyl)carbamoyl]-4,5,6,7-tetrahydrobenzothiophen-2-yl]carbamoyl]cyclohexanecarboxylic acid]
Second: CC(C)(C)c1ccc(NC(=O)c2c(NC(=O)C3CCCCC3C(=O)O)sc3c2CCC3)cc1 (stereo not shown) [Compound 21, 2-[[3-[(4-tert-Butylphenyl)carbamoyl]-5,6-dihydro-4H-cyclopenta[b]thiophen-2-yl]carbamoyl]cyclohexanecarboxylic acid]
The pIC50 of the first is 0.40 log units higher: 5.73 for the first, 5.33 for the second. The first is the more potent here.

Compared with `O=C(Nc1ccc(Cl)cc1)c1ccsc1NC(=O)C1C2CCC(CC2)C1C(=O)O` (stereo not shown) [Compound 71, 2-[[3-[(4-Chlorophenyl)carbamoyl]-2-thienyl]carbamoyl]bicyclo[2.2.2]octane-3-carboxylic acid], `O=C(Nc1ccc(Cl)cc1)c1c(NC(=O)C2C3CCC(O3)C2C(=O)O)sc2c1CCC2` (stereo not shown) [Compound 51, 2-[[3-[(4-Chlorophenyl)carbamoyl]-5,6-dihydro-4H-cyclopenta[b]thiophen-2-yl]carbamoyl]-7-oxabicyclo[2.2.1]heptane-3-carboxylic acid] is 0.38 log units lower in pIC50: 4.91 for the first, 4.53 for the second. The first is the more potent here.

`N#Cc1ccc(NC(=O)c2c(NC(=O)C3CCCCC3C(=O)O)sc3c2CCC3)cc1` (stereo not shown) [Compound 28, 2-[[3-[(4-Cyanophenyl)carbamoyl]-5,6-dihydro-4H-cyclopenta[b]thiophen-2-yl]carbamoyl]cyclohexanecarboxylic acid] and `O=C(Nc1ccc(F)cc1)c1c(NC(=O)C2CCCCC2C(=O)O)sc2c1CCC2` (stereo not shown) [Compound 4, 2-[[3-[(4-Fluorophenyl)carbamoyl]-5,6-dihydro-4H-cyclopenta[b]thiophen-2-yl]carbamoyl]cyclohexanecarboxylic acid] are within 0.2 log units of each other in pIC50: 4.80 for the first, 4.82 for the second.

Compared with `CC(C)(CC(=O)O)CC(=O)Nc1sc2c(c1C(=O)Nc1ccc(Cl)cc1)CCC2` [Compound 47, 5-[[3-[(4-Chlorophenyl)carbamoyl]-5,6-dihydro-4H-cyclopenta[b]thiophen-2-yl]amino]-3,3-dimethyl-5-oxo-pentanoic acid], `Cc1cc(NC(=O)c2c(NC(=O)C3CCCCC3C(=O)O)sc3c2CCC3)ccc1Cl` (stereo not shown) [Compound 13, 2-[[3-[(4-Chloro-3-methyl-phenyl)carbamoyl]-5,6-dihydro-4H-cyclopenta[b]thiophen-2-yl]carbamoyl]cyclohexanecarboxylic acid] is 0.69 log units higher in pIC50: 4.64 for the first, 5.33 for the second.

First: O=C(NC1CCc2ccccc21)c1c(NC(=O)C2CCCCC2C(=O)O)sc2c1CCC2 (stereo not shown) [Compound 23, 2-[[3-(Indan-1-ylcarbamoyl)-5,6-dihydro-4H-cyclopenta[b]thiophen-2-yl]carbamoyl]cyclohexanecarboxylic acid]
Second: CC(=O)c1cccc(NC(=O)c2c(NC(=O)C3CCCCC3C(=O)O)sc3c2CCC3)c1 (stereo not shown) [Compound 12, 2-[[3-[(3-Acetylphenyl)carbamoyl]-5,6-dihydro-4H-cyclopenta[b]thiophen-2-yl]carbamoyl]cyclohexanecarboxylic acid]
The pIC50 of the first is 0.53 log units higher: 5.20 for the first, 4.67 for the second.

Going from `O=C(O)C1CCCCC1C(=O)Nc1sc2c(c1C(=O)N1CCN(c3ccc(Cl)cc3)CC1)CCC2` (stereo not shown) [Compound 36, 2-[[3-[4-(4-chlorophenyl)piperazine-1-carbonyl]-5,6-dihydro-4H-cyclopenta[b]thiophen-2-yl]carbamoyl]cyclohexanecarboxylic acid] to `Cc1cc(Cl)ccc1NC(=O)c1c(NC(=O)C2CCCCC2C(=O)O)sc2c1CCC2` (stereo not shown) [Compound 7, 2-[[3-[(4-Chloro-2-methyl-phenyl)carbamoyl]-5,6-dihydro-4H-cyclopenta[b]thiophen-2-yl]carbamoyl]cyclohexanecarboxylic acid], the pIC50 rises from 4.68 to 5.00 (0.32 log units).

`O=C(Nc1ccc(Cl)c(C(F)(F)F)c1)c1c(NC(=O)C2CCCCC2C(=O)O)sc2c1CCC2` (stereo not shown) [Compound 6, 2-[[3-[[4-Chloro-3-(trifluoromethyl)phenyl]carbamoyl]-5,6-dihydro-4H-cyclopenta[b]thiophen-2-yl]carbamoyl]cyclohexanecarboxylic acid] and `Cc1ccc(NC(=O)c2c(NC(=O)C3CCCCC3C(=O)O)sc3c2CCC3)cc1Cl` (stereo not shown) [Compound 14, 2-[[3-[(3-chloro-4-methyl-phenyl)carbamoyl]-5,6-dihydro-4H-cyclopenta[b]thiophen-2-yl]carbamoyl]cyclohexanecarboxylic acid] are within 0.2 log units of each other in pIC50: 5.33 for the first, 5.32 for the second.
